# Experimental data reported in patent publication US5243049A, “Certain pyrroloquinolinones: a new class of GABA brain receptor ligands” (Neurogen Corporation, priority 1992, dated 1993).
# What was measured:
# [1] = tested on: benzodiazepine binding site / GABA receptor; conditions: brain membranes; cited from earlier work
# GABAa receptor = assay: Inhibition of 3H-RO15-1788 [3H-Flumazenil] binding to rat cortical tissue (GABAa receptor activity); conditions: 0.5 nM 3H-RO15-1788, 30 min at 4° C., pH 7.4
# Description: The pharmaceutical utility of compounds of this invention are indicated by the following assay for GABAa receptor activity.
# Assays are carried out as described in Thomas and Tallman (J. Bio. Chem. 156: 9838-9842, J. Neurosci. 3:433-440, 1983). Rat cortical tissue is dissected and homogenized in 25 volumes (w/v) of 0.05M Tris HCl buffer (pH 7.4 at 4° C.). The tissue homogenate is centrifuged in the cold (4° C.) at 20,000×g for 20 minutes. The supernatant is decanted and the pellet is rehomogenized in the same volume of buffer and again centrifuged at 20,000×g. The supernatant is decanted and the pellet is frozen at -20° C. overnight. The pellet is then thawed and rehomogenized in 25 volume (original wt/vol) of buffer and the procedure is carried out twice. The pellet is finally resuspended in 50 volumes (w/vol of 0.05M Tris HCl buffer (pH 7.4 at 4° C.).
# Incubations contain […] of radioligand 0.5 nM (^3 H-RO15-1788 [^3 H-Flumazenil] specific activity 80 Ci/mmol), drug or blocker and buffer to a total volume of […]. Incubations are carried for 30 min at 4° C. then are rapidly filtered through GFB filters to separate free and bound ligand. Filters are washed twice with fresh 0.05M Tris HCl buffer (pH 7.4 at 4° C.) and counted in a liquid scintillation counter. […] diazepam is added to some tubes to determine nonspecific binding. Data are collected in triplicate determinations, averaged and % inhibition of total specific binding is calculated. Total Specific Binding=Total-Nonspecific. In some cases, the amounts of unlabeled drugs is varied and total displacement curves of binding are carried out. Data are converted to a form for the calculation of IC50 and Hill Coefficient (nH).
IC50 (GABAa receptor) [nM],Compound,Block of enhancement of benzodiazepine binding by GABA agonists [1]
–,CN1CCc2cc3c(cc2[C@H]1[C@@H]1OC(=O)c2c1ccc1c2OCO1)OCO3 [(+) bicuculline],blocked
400,"COc1ccc(N2C(=O)c3c(c4ccccc4[nH]c3=O)C2=O)cc1 [Compound 2, 2-(4-Methoxyphenyl)-pyrrolo[3,4-c]quinoline-1,3,4(5H)-trione]",–
602,"O=C1c2c(c3ccccc3[nH]c2=O)CN1c1ccccc1 [Compound 16, 2-Phenyl-pyrrolo[3,4-c]quinoline-3(1H),4(5H)-dione]",–
700,"O=C1c2c(c3ccccc3[nH]c2=O)C(=O)N1c1ccccc1F [Compound 4, 2-(2-Fluorophenyl)-pyrrolo[3,4-c]quinoline-1,3,4(5H)-trione]",–
36,"O=C1c2c(c3ccccc3[nH]c2=O)C(=O)N1c1ccccc1 [Compound 1, 2'-Phenyl-pyrrolo[3,4-c]quinoline-1,3,4(5H)-trione]",–
–,CN1CCc2cc3c(cc2[C@@H]1[C@H]1OC(=O)c2c1ccc1c2OCO1)OCO3 [(-) bicuculline],much less active
